In US12005055B2, “Methods for shrinking pituitary tumors” (Corcept Therapeutics Incorporated, priority 2018, dated 2024):
“Also recorded” adds a separate entry of the source.

Assays:
pituitary tumors = settings: cited from earlier work
glucocorticoid receptor = glucocorticoid receptor (Homo sapiens, UniProt P04150); settings: HepG2 cells; cited from earlier work
pituitary macroadenoma = assay: MRI measurement of pituitary tumor size in Cushing's Disease patients given relacorilant; assay type: in vivo, human
Source text: The relacorilant administration disclosed herein can reduce tumor size and confer beneficial clinical outcomes to patients having a pituitary tumor. Methods for measuring the size of a pituitary tumor are well-known to skilled artisans in the field. For example, magnetic resonance imaging (MRI) and other imaging methods may be used to detect tumor shrinkage. Other methods for determining the effect of cancer therapy on tumor size are also known in the art, e.g., as described in the Response Evaluation Criteria in Solid Tumors (“RECIST”) guidelines, discussed, for example, in Chalian et al., Radiographics 31(7):2093-2105 (2011), and available at “protocolDevelopment/docs/recist_guideline.pdf” of the website “ctep.cancer.gov”.
Measuring tumor size is typically achieved by imaging-based techniques, including magnetic resonance imaging (MRI), computed tomography (CT), positron-emission tomography (PET) and other techniques. For example, MRI, CT, and PET scans can provide accurate and reliable anatomic information not only about tumor shrinkage or growth but also progression of disease by identifying either growth in existing lesions or the development of new lesions or tumor metastasis. Tumor size, including a reduction in tumor size, may be determined by measuring a linear dimension of a tumor (measuring may be accomplished, for example, by counting pixels on a digital image, by measuring a distance on a printed image or from an image projected onto a screen); by measuring two different linear dimensions of a tumor; by measuring three, or more, different linear dimensions of a tumor; by calculating (or estimating, based on measurements) a cross-sectional area of a tumor; by calculating (or estimating, based on measurements) a volume of a tumor; or by other means known in the art. […]

progesterone receptor = progesterone receptor (Homo sapiens, UniProt P06401); settings: cited from earlier work
[1] = Clinical studies of relacorilant in patients with endogenous hypercortisolism; assay type: in vivo, human
Source text: The following examples show the results of relacorilant administration to patients suffering from pituitary tumors.

androgen receptor = androgen receptor (Homo sapiens, UniProt P10275); settings: cited from earlier work
[2] = molecular target: T1, mineralocorticoid receptor (Homo sapiens, UniProt P08235); settings: cited from earlier work
T1 sequence (P08235 1-984): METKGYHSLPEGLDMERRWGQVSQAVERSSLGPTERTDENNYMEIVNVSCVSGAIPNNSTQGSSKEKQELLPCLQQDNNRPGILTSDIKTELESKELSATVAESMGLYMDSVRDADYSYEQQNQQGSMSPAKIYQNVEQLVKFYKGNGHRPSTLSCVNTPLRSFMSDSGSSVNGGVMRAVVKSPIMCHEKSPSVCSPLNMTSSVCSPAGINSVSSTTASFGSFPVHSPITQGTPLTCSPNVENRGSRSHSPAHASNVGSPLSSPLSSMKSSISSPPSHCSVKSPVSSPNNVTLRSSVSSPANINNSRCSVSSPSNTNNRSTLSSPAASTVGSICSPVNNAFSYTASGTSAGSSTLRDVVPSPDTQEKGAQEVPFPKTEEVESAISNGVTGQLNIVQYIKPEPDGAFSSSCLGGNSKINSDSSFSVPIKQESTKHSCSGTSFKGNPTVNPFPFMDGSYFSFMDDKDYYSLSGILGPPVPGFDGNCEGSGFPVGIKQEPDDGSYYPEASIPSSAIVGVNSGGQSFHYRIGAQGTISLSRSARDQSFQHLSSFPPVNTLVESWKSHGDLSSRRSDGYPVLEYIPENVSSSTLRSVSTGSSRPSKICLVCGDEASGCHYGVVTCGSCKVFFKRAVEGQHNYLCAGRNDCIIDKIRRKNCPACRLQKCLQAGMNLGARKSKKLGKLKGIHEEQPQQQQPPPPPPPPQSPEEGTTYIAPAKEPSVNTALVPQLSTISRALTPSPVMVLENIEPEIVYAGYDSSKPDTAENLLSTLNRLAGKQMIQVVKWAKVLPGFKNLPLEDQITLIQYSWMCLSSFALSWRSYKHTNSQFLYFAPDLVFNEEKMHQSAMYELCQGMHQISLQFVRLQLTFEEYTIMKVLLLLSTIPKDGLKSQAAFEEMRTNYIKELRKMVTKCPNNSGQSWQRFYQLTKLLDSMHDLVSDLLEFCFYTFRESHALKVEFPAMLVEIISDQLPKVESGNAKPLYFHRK

estrogen receptor = settings: cited from earlier work

Chain of progesterone receptor (P06401 whole entry, species assumed): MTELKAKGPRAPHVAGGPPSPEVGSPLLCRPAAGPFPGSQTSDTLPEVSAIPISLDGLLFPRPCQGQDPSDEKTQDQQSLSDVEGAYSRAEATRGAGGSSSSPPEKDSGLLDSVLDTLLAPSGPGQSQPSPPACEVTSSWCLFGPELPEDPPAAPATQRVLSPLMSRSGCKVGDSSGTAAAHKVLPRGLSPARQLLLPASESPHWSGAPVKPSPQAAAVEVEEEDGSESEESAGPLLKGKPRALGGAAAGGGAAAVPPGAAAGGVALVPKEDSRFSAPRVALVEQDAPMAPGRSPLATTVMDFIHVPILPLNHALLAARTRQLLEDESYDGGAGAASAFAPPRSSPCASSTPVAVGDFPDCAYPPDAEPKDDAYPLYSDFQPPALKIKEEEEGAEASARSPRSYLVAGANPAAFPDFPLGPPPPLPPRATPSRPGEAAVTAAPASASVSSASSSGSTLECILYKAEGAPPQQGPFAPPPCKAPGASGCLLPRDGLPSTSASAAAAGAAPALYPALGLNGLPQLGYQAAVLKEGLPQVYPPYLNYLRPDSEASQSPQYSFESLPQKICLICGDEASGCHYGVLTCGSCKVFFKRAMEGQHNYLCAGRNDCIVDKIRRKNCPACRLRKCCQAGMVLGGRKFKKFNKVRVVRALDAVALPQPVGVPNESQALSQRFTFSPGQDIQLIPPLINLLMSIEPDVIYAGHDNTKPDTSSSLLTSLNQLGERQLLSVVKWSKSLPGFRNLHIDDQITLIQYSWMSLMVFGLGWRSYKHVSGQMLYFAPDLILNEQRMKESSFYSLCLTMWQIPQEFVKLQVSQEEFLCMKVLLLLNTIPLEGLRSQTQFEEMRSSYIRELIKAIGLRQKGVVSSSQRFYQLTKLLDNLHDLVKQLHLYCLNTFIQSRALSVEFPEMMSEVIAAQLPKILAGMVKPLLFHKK
Chain of glucocorticoid receptor (P04150 whole entry): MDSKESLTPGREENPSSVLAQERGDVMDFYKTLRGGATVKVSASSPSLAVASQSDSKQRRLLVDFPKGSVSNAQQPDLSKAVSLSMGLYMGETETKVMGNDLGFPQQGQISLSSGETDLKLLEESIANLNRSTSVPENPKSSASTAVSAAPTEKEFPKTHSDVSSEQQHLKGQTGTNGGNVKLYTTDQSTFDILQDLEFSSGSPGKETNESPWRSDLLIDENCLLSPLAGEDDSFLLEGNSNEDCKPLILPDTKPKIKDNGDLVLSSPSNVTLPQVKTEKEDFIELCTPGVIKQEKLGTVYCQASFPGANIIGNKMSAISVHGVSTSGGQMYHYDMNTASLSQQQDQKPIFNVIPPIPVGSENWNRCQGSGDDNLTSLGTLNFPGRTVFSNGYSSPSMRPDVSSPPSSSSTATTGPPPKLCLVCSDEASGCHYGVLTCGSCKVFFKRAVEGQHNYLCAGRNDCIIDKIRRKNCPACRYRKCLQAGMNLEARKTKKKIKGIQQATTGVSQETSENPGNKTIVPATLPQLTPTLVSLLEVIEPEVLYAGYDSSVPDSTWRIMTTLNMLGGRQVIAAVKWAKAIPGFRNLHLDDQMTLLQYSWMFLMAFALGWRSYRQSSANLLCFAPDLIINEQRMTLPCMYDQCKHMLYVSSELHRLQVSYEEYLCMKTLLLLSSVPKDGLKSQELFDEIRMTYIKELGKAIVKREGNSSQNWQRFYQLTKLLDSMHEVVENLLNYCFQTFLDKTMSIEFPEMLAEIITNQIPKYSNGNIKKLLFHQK
Chain of androgen receptor (P10275 whole entry, species assumed): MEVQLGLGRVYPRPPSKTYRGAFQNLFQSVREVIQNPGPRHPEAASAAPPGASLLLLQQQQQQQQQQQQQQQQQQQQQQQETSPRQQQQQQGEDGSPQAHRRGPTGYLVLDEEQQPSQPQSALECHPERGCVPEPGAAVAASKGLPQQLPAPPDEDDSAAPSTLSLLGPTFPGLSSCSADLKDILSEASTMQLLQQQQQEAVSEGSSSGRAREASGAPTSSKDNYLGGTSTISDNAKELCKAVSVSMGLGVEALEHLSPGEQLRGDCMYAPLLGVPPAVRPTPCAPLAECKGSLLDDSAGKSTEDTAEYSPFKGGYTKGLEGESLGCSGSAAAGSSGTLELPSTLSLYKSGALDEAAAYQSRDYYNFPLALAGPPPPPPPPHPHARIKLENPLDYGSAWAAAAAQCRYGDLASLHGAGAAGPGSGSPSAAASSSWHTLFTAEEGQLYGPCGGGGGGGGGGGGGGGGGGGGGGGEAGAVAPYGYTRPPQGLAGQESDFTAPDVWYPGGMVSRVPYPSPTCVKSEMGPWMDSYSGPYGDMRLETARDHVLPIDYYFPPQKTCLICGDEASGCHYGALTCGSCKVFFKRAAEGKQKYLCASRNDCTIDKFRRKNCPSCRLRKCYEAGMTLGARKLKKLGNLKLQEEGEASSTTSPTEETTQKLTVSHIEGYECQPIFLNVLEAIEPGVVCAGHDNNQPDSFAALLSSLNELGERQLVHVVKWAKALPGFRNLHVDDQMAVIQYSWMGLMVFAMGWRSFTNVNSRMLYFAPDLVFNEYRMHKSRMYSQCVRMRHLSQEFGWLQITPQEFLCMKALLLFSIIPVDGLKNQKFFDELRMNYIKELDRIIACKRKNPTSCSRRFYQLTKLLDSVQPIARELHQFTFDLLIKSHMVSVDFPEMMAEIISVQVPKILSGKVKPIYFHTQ

SMILES | tumor regression (MRI) (pituitary tumors; 17 Cushing's Disease patients with visible tumors (10 macroadenomas), mifepristone for 24 weeks) | MRI images of tumor over treatment (pituitary tumors; 17 patients, in one patient the tumor increased in size with 10 weeks of mifepristone) | effect on tyrosine aminotransferase (TAT) activity (glucocorticoid receptor) | tumor volume shrinkage (pituitary macroadenoma; Example 2 patient, following three months of relacorilant administration) [%] | multiplication of the three post-treatment measurements (indication of tumor volume) (pituitary macroadenoma; Example 2 patient, pre-treatment measure 14,300 mm^3) | effect on pituitary tumor size (pituitary macroadenoma; two Cushing's Disease patients (both macroadenomas), three months of daily relacorilant) | effect on progesterone receptor (progesterone receptor) | tolerability ([1]; clinical studies) | glycemic and hypertension control and other manifestations of cortisol excess ([1]; patients with endogenous hypercortisolism) | effect on androgen receptor (androgen receptor) | effect on mineralocorticoid receptor [2] | effect on estrogen receptor (estrogen receptor)
CC#C[C@]1(O)CC[C@H]2[C@@H]3CCC4=CC(=O)CCC4=C3[C@@H](c3ccc(N(C)C)cc3)C[C@@]21C [mifepristone] | no regression | stable in all but one patient | decreases |  |  |  |  |  |  |  |  | 
Cn1cc(S(=O)(=O)N2CCC3=Cc4c(cnn4-c4ccc(F)cc4)C[C@]3(C(=O)c3cc(C(F)(F)F)ccn3)C2)cn1 [relacorilant, (R)-(1-(4-fluorophenyl)-6-((1-methyl-1H-pyrazol-4-yl)sulfonyl)-4,4a,5,6,7,8-hexahydro-1H-pyrazolo[3,4-g]isoquinolin-4a-yl)(4-(trifluoromethyl)pyridin-2-yl)methanone] |  |  |  | ~40 | 8,778 mm^3 | significant pituitary tumor shrinkage; also recorded: shrunk; also recorded: effective to reduce the size of pituitary tumors | does not significantly affect | well tolerated | significantly improved | does not significantly affect | does not significantly affect | does not significantly affect
